Source: paper PMC12467512, “Pharmacological Characterization of the Novel CRF1 Receptor Antagonist, Thiazolo[4,5-d] Pyrimidine Analog, M43” (Biomolecules, 2025)

Target: T1, CRF1R (type 1 receptor for the corticotropin-releasing factor) (Homo sapiens, UniProt P34998)
T1 construct: gene CRHR1
T1 sequence (P34998 24-415): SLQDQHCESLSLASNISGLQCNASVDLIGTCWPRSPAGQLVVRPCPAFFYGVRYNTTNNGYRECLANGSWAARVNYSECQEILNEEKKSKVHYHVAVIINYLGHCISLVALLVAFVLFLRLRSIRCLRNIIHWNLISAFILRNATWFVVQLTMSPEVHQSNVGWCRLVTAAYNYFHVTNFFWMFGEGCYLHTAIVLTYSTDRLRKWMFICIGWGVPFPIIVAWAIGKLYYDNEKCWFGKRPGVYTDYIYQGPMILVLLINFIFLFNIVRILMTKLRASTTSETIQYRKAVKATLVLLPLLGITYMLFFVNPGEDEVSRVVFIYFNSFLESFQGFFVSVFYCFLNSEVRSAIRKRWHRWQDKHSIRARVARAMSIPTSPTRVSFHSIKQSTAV
Test: inhibition of cAMP accumulation stimulated by […] Tyr0-sauvagine in HEK […] cells stably expressing human CRF1R; also […] shift of agonist potency at […] M43
Assay type: cell-based

IC50: 43.5 nM
SMILES: CCCCN(CC)c1nc(C)nc2c1s/c(=N\O)n2-c1c(Cl)cc(Cl)cc1Cl [M43]
